Patent publication US20120232062A1, “AZAINDAZOLES TO TREAT FLAVIVIRIDAE VIRUS INFECTION” (EIGER BIOPHARMACEUTICALS, INC., priority 2009, published 2012)
Like-named read-outs stand apart in the source and are kept apart here.

Columns and labels:
[1] = Liver microsome stability, human; assay type: in vitro ADME; settings: for liver stability predicted by in vitro PK profiles: human vs rat liver, in words
Description: (§1) Metabolic stability assays are designed to measure the stability of a test compound in a variety of assay matrices from human and animal species. From a metabolism perspective, a drug would be relatively stable, have a small first-pass effect, and maintain an effective concentration in blood for a reasonable period of time. A microsomal preparation from the liver contains all CYP isozymes and other membrane-bound drug metabolizing enzymes which are responsible for the metabolism for the majority of drugs in humans. Metabolic stability in liver microsomes can determine half-life (T1/2) and intrinsic clearance (Clint). The determination of Clint may be useful to determine whether metabolism is the major elimination pathway when it is compared to total body clearance in vivo. For high metabolic stability in liver microsomes: […] Human, Sprague Dawley rat, and CD-1 mouse liver microsome samples were purchased from BD Gentest. An in vitro metabolic stability assay suitable for use in predicting first pass metabolism of the compounds useful in the methods of the invention is described in this example. […] 6 mM NADPH in 0.1 M K-phosphate buffer is prepared by dissolving 25.1 mg of NADPH tetrasodium salt in 5 mL of K-phosphate buffer. […] The plate is pre-incubated at 37° C. for 10 minutes. 15 μL of NADPH stock solution (6 mM) is added to the wells designated for Time 60 and timed. At 30 min, 15 min, and 5 min, 15 μL of NADPH stock solution (6 mM) is added to the wells. At the end of incubation, 135 μL of ACN containing IS is added to all the wells (60 min, 30 min, 15 min, 5 min and 0 min). Then 15 μL of NADPH stock solution (6 mM) is added to the wells designated as Time 0.

HCV genotype 1b = test: HCV 1b replicon luciferase assay; assay type: cell-based
Outline: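 Huh7 cells carrying a genotype 1b replicon with stable luciferase reporter, 10k cells/well, were treated 48 h at 37 °C with 10-point 5-fold dilutions from 25 μM (0.1% DMSO), in duplicate. Replication was read as Steady-Glo luminescence.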

[2] = Liver microsome stability, mouse; assay type: in vitro ADME, CD-1 mouse
Description: as §1

[3] = Hepatitis C virus, read-out: 1b replicon EC50, Tables 4, 5 and text of the rat PK section
[4] = read-out: 1b replicon EC50, Tables 4, 5 and the rat PK section
[5] = Hepatitis C virus, Huh-7, 48 h, Table 1, Huh7 HCV 1b replicon, luciferase reporter, 48 hours, read-out: 1b EC50

## Cn1nc(C(=O)NC2CCN(CCN3CCCCC3)CC2)c2ccc(N3CCCCCC3)nc21 [EBP1047]
[1]; after 15 min
  human liver microsome (HLM, % parent remaining): 78 % parent remaining
[1]; after 30 min
  human liver microsome (HLM, % parent remaining): 62 % parent remaining
[1]; after 60 min
  human liver microsome (HLM, % parent remaining): 34 % parent remaining
[1]
  liver stability predicted by in vitro PK profiles: higher stability in human liver vs rat liver
HCV genotype 1b; [3]
  EC50: 500 to 2000 nM
HCV genotype 1b; [4]
  EC50: 500 nM
[2]; after 15 min
  mouse liver microsome (MLM), % parent remaining: 56 % parent remaining
[2]; after 30 min
  mouse liver microsome (MLM), % parent remaining: 29 % parent remaining
[2]; after 60 min
  mouse liver microsome (MLM), % parent remaining: 12 % parent remaining

## CCN1CCC(NC(=O)c2nn(C)c3nc(N4CCCCCC4)ccc23)CC1 [EBP1595]
[1]; after 15 min
  human liver microsome (HLM, % parent remaining): 73 % parent remaining
[1]; after 30 min
  human liver microsome (HLM, % parent remaining): 46 % parent remaining
[1]; after 60 min
  human liver microsome (HLM, % parent remaining): 14 % parent remaining
[1]
  liver stability predicted by in vitro PK profiles: higher stability in human liver vs rat liver
HCV genotype 1b; [3]
  EC50: 500 to 2000 nM
HCV genotype 1b; [4]
  EC50: 1000 nM
[2]; after 15 min
  mouse liver microsome (MLM), % parent remaining: 67 % parent remaining
[2]; after 30 min
  mouse liver microsome (MLM), % parent remaining: 50 % parent remaining
[2]; after 60 min
  mouse liver microsome (MLM), % parent remaining: 17 % parent remaining

## Cn1nc(C(=O)NC2CCN(CCN3CCCC3)CC2)c2ccc(N3CCCCCC3)nc21 [EBP1597]
[1]; after 15 min
  human liver microsome (HLM, % parent remaining): 81 % parent remaining
[1]; after 30 min
  human liver microsome (HLM, % parent remaining): 74 % parent remaining
[1]; after 60 min
  human liver microsome (HLM, % parent remaining): 57 % parent remaining
[1]
  liver stability predicted by in vitro PK profiles: higher stability in human liver vs rat liver
HCV genotype 1b; [3]
  EC50: 500 to 2000 nM
HCV genotype 1b; [4]
  EC50: 900 nM
[2]; after 15 min
  mouse liver microsome (MLM), % parent remaining: 67 % parent remaining
[2]; after 30 min
  mouse liver microsome (MLM), % parent remaining: 32 % parent remaining
[2]; after 60 min
  mouse liver microsome (MLM), % parent remaining: 14 % parent remaining

## CC(C)N1CCC(NC(=O)c2nn(C)c3nc(N4CCCCCC4)ccc23)CC1 [EBP1604]
[1]; after 15 min
  human liver microsome (HLM, % parent remaining): 71 % parent remaining
[1]; after 30 min
  human liver microsome (HLM, % parent remaining): 63 % parent remaining
[1]; after 60 min
  human liver microsome (HLM, % parent remaining): 28 % parent remaining
[1]
  liver stability predicted by in vitro PK profiles: higher stability in human liver vs rat liver
HCV genotype 1b; [4]
  EC50: 2200 nM
[2]; after 15 min
  mouse liver microsome (MLM), % parent remaining: 57 % parent remaining
[2]; after 30 min
  mouse liver microsome (MLM), % parent remaining: 40 % parent remaining
[2]; after 60 min
  mouse liver microsome (MLM), % parent remaining: 14 % parent remaining

## Cn1nc(C(=O)NC2CCNCC2)c2ccc(N3CCCCCC3)nc21.O=C(O)C(F)(F)F.O=C(O)C(F)(F)F [compound 697]
[1]; after 15 min
  human liver microsome (HLM, % parent remaining): 96 % parent remaining
[1]; after 30 min
  human liver microsome (HLM, % parent remaining): 109 % parent remaining
[1]; after 60 min
  human liver microsome (HLM, % parent remaining): 108 % parent remaining
HCV genotype 1b; [5]
  EC50: 670 nM
[2]; after 15 min
  mouse liver microsome (MLM), % parent remaining: 85 % parent remaining
[2]; after 30 min
  mouse liver microsome (MLM), % parent remaining: 74 % parent remaining
[2]; after 60 min
  mouse liver microsome (MLM), % parent remaining: 44 % parent remaining

## CCC(CC)Oc1ccc2c(C(=O)NC3CCNCC3)n[nH]c2n1 [compound 726]
[1]; after 15 min
  human liver microsome (HLM, % parent remaining): 86 % parent remaining
[1]; after 30 min
  human liver microsome (HLM, % parent remaining): 81 % parent remaining
[1]; after 60 min
  human liver microsome (HLM, % parent remaining): 65 % parent remaining
HCV genotype 1b; [5]
  EC50: 1200 nM
[2]; after 15 min
  mouse liver microsome (MLM), % parent remaining: 99 % parent remaining
[2]; after 30 min
  mouse liver microsome (MLM), % parent remaining: 96 % parent remaining
[2]; after 60 min
  mouse liver microsome (MLM), % parent remaining: 86 % parent remaining

## Clc1ccc(Cn2nc(COCCCN3CCCCC3)c3ccc(N4CCCCCC4)nc32)cc1 [compound 749]
HCV genotype 1b; [5]
  EC50: 2000 nM

## CCC(CC)Oc1ccc2c(COCC3CCCNC3)nn(Cc3ccc(Cl)cc3)c2n1.O=C(O)C(F)(F)F (centres unmarked) [compound 755]
HCV genotype 1b; [5]
  EC50: 3200 nM

## O=C(NC1CCNCC1)c1nn(C(=O)C2CCCCC2)c2nc(N3CCCCCC3)ccc12.O=C(O)C(F)(F)F.O=C(O)C(F)(F)F.O=C(O)C(F)(F)F [compound 989]
HCV genotype 1b; [5]
  EC50: 2600 nM

## Cn1nc(C(=O)NC2CCN(CCN3CCCCC3)CC2)c2ccc(N3CCCCCC3)nc21 [compound 1047]
[1]; after 15 min
  human liver microsome (HLM, % parent remaining): 78 % parent remaining
[1]; after 30 min
  human liver microsome (HLM, % parent remaining): 62 % parent remaining
[1]; after 60 min
  human liver microsome (HLM, % parent remaining): 34 % parent remaining
HCV genotype 1b; [5]
  EC50: 520 nM
[2]; after 15 min
  mouse liver microsome (MLM), % parent remaining: 56 % parent remaining
[2]; after 30 min
  mouse liver microsome (MLM), % parent remaining: 29 % parent remaining
[2]; after 60 min
  mouse liver microsome (MLM), % parent remaining: 12 % parent remaining

## Cn1nc(C(=O)NC2CCN(CC3CCCCC3)CC2)c2ccc(N3CCCCCCC3)nc21 [compound 1062]
HCV genotype 1b; [5]
  EC50: 356 nM

## Cn1nc(C(=O)NC2CCN(CC(F)F)CC2)c2ccc(N3CCCCCC3)nc21 [compound 1110]
[1]; after 15 min
  human liver microsome (HLM, % parent remaining): 8 % parent remaining
[1]; after 30 min
  human liver microsome (HLM, % parent remaining): 0.4 % parent remaining
[1]; after 60 min
  human liver microsome (HLM, % parent remaining): 0.4 % parent remaining
HCV genotype 1b; [5]
  EC50: 1800 nM
[2]; after 15 min
  mouse liver microsome (MLM), % parent remaining: 15 % parent remaining
[2]; after 30 min
  mouse liver microsome (MLM), % parent remaining: 1 % parent remaining
[2]; after 60 min
  mouse liver microsome (MLM), % parent remaining: 0.4 % parent remaining

## Cn1nc(CCCN2CCCC2)c2ccc(N3CCCCCCC3)nc21 [compound 1171]
[1]; after 15 min
  human liver microsome (HLM, % parent remaining): 67 % parent remaining
[1]; after 30 min
  human liver microsome (HLM, % parent remaining): 44 % parent remaining
[1]; after 60 min
  human liver microsome (HLM, % parent remaining): 23 % parent remaining
HCV genotype 1b; [5]
  EC50: 1600 nM
[2]; after 15 min
  mouse liver microsome (MLM), % parent remaining: 22 % parent remaining
[2]; after 30 min
  mouse liver microsome (MLM), % parent remaining: 3 % parent remaining
[2]; after 60 min
  mouse liver microsome (MLM), % parent remaining: 1 % parent remaining

## Cn1nc(CCCN2CCCCC2CO)c2ccc(N3CCCCCCC3)nc21 (centres unmarked) [compound 1456]
[1]; after 15 min
  human liver microsome (HLM, % parent remaining): 28 % parent remaining
[1]; after 30 min
  human liver microsome (HLM, % parent remaining): 6 % parent remaining
[1]; after 60 min
  human liver microsome (HLM, % parent remaining): 0.7 % parent remaining
HCV genotype 1b; [5]
  EC50: 1500 nM
[2]; after 15 min
  mouse liver microsome (MLM), % parent remaining: 1.7 % parent remaining
[2]; after 30 min
  mouse liver microsome (MLM), % parent remaining: 0.9 % parent remaining
[2]; after 60 min
  mouse liver microsome (MLM), % parent remaining: 0.3 % parent remaining

## CCN1CCC(NC(=O)c2nn(C)c3nc(N4CCCCCC4)ccc23)CC1 [compound 1595]
[1]; after 15 min
  human liver microsome (HLM, % parent remaining): 73 % parent remaining
[1]; after 30 min
  human liver microsome (HLM, % parent remaining): 45 % parent remaining
[1]; after 60 min
  human liver microsome (HLM, % parent remaining): 14 % parent remaining
HCV genotype 1b; [5]
  EC50: 740 nM
[2]; after 15 min
  mouse liver microsome (MLM), % parent remaining: 67 % parent remaining
[2]; after 30 min
  mouse liver microsome (MLM), % parent remaining: 50 % parent remaining
[2]; after 60 min
  mouse liver microsome (MLM), % parent remaining: 17 % parent remaining

## Cn1nc(C(=O)NC2CCN(CCN3CCCC3)CC2)c2ccc(N3CCCCCC3)nc21 [compound 1597]
[1]; after 15 min
  human liver microsome (HLM, % parent remaining): 81 % parent remaining
[1]; after 30 min
  human liver microsome (HLM, % parent remaining): 74 % parent remaining
[1]; after 60 min
  human liver microsome (HLM, % parent remaining): 58 % parent remaining
HCV genotype 1b; [5]
  EC50: 770 nM
[2]; after 15 min
  mouse liver microsome (MLM), % parent remaining: 67 % parent remaining
[2]; after 30 min
  mouse liver microsome (MLM), % parent remaining: 32 % parent remaining
[2]; after 60 min
  mouse liver microsome (MLM), % parent remaining: 14 % parent remaining
